According to ChEMBL document CHEMBL1629662, “Antimicrobial activity of prulifloxacin tested against a worldwide collection of gastroenteritis-producing pathogens, including those causing traveler's diarrhea” (2009):
Converted amounts (≈) assume the structure as drawn.

Key:
Aeromonas sp. [1] = test: Antibacterial activity against Aeromonas sp. assessed as growth inhibition at 1 ug/ml by broth microdilution method; format: functional
Yersinia sp. = test: Antibacterial activity against Yersinia sp. assessed as growth inhibition at 0.03 ug/ml by broth microdilution method; format: functional; settings: Yersinia sp. (in: enterobacteria)
Escherichia coli [2] = test: Antibacterial activity against blood-borne Escherichia coli assessed as percent resistant isolates by broth microdilution method; format: functional
Plesiomonas shigelloides [3] = test: Antibacterial activity against Plesiomonas shigelloides by broth microdilution method; format: functional
Vibrio sp. [4] = test: Antibacterial activity against Vibrio sp. assessed as growth inhibition at 0.016 ug/ml by broth microdilution method; format: functional
Aeromonas caviae = test: Antibacterial activity against Aeromonas caviae assessed as percent susceptible isolates by broth microdilution method; format: functional
Shigella sp. [5] = test: Antibacterial activity against Shigella sp. assessed as growth inhibition at 0.016 ug/ml by broth microdilution method; format: functional
Escherichia coli [6] = test: Antibacterial activity against enteropathogenic Escherichia coli assessed as percent resistant isolates by broth microdilution method; format: functional
Escherichia coli [7] = test: Antibacterial activity against Escherichia coli assessed as growth inhibition at 0.25 ug/ml by broth microdilution method; format: functional
[8] = Antibacterial activity against Salmonella enterica serovar Choleraesuis assessed as percent susceptible isolates by broth microdilution method; format: functional, Salmonella enterica subsp. enterica serovar Choleraesuis
[9] = Antibacterial activity against Salmonella enterica serovar Virchow by broth microdilution method; format: functional, Salmonella enterica subsp. enterica serovar Virchow
Escherichia coli [10] = test: Antibacterial activity against Escherichia coli by broth microdilution method in presence of sulfamethoxazolee; format: functional
Aeromonas sp. [11] = test: Antibacterial activity against Aeromonas sp. assessed as growth inhibition at 0.008 ug/ml by broth microdilution method; format: functional
Salmonella paratyphi [12] = test: Antibacterial activity against Salmonella enterica serovar Paratyphi by broth microdilution method; format: functional, Salmonella enterica subsp. enterica serovar Paratyphi A
Escherichia coli [13] = test: Antibacterial activity against enteroaggregative Escherichia coli assessed as percent resistant isolates by broth microdilution method; format: functional
Escherichia coli [14] = test: Antibacterial activity against Escherichia coli assessed as percent resistant isolates by broth microdilution method; format: functional
Vibrio cholerae = test: Antibacterial activity against Vibrio cholerae assessed as percent resistant isolates by broth microdilution method; format: functional
Aeromonas hydrophila [15] = test: Antibacterial activity against Aeromonas hydrophila by broth microdilution method; format: functional
Campylobacter sp. [16] = test: Antibacterial activity against Campylobacter sp. assessed as growth inhibition at 1 ug/ml by broth microdilution method; format: functional
[17] = Antibacterial activity against Salmonella enterica serovar Heidelberg by broth microdilution method; format: functional, Salmonella enterica subsp. enterica serovar Heidelberg
Aeromonas hydrophila [18] = test: Antibacterial activity against Aeromonas hydrophila assessed as percent resistant isolates by broth microdilution method; format: functional
Plesiomonas shigelloides [19] = test: Antibacterial activity against Plesiomonas shigelloides assessed as percent resistant isolates by broth microdilution method; format: functional
Aeromonas sp. [20] = test: Antibacterial activity against Aeromonas sp. assessed as growth inhibition at 0.5 ug/ml by broth microdilution method; format: functional
Aeromonas sp. [21] = test: Antibacterial activity against Aeromonas sp. assessed as growth inhibition at 0.12 ug/ml by broth microdilution method; format: functional
Shigella sp. [22] = test: Antibacterial activity against Shigella sp. assessed as growth inhibition at 0.008 ug/ml by broth microdilution method; format: functional
Salmonella paratyphi [23] = test: Antibacterial activity against Salmonella enterica serovar Paratyphi assessed as percent susceptible isolates by broth microdilution method; format: functional, Salmonella enterica subsp. enterica serovar Paratyphi A
Salmonella typhimurium [24] = test: Antibacterial activity against Salmonella enterica serovar Typhimurium by broth microdilution method; format: functional, Salmonella enterica subsp. enterica serovar Typhimurium
Aeromonas sp. [25] = test: Antibacterial activity against Aeromonas sp. assessed as growth inhibition at =<0.002 ug/ml by broth microdilution method; format: functional
Vibrio sp. [26] = test: Antibacterial activity against Vibrio sp. assessed as growth inhibition at 0.008 ug/ml by broth microdilution method; format: functional
Salmonella typhi = test: Antibacterial activity against Salmonella enterica serovar Typhi assessed as percent susceptible isolates by broth microdilution method; format: functional, Salmonella enterica subsp. enterica serovar Typhi
Plesiomonas shigelloides [27] = test: Antibacterial activity against Plesiomonas shigelloides assessed as growth inhibition at 0.008 ug/ml by broth microdilution method; format: functional
Campylobacter sp. [28] = test: Antibacterial activity against Campylobacter sp. assessed as growth inhibition at 2 ug/ml by broth microdilution method; format: functional
Aeromonas sobria = test: Antibacterial activity against Aeromonas sobria assessed as percent susceptible isolates by broth microdilution method; format: functional
Vibrio sp. [29] = test: Antibacterial activity against Vibrio sp. by broth microdilution method; format: functional
Escherichia coli [30] = test: Antibacterial activity against Escherichia coli assessed as growth inhibition at 0.06 ug/ml by broth microdilution method; format: functional
[31] = Antibacterial activity against Salmonella enterica serovar Newport by broth microdilution method; format: functional, Salmonella enterica subsp. enterica serovar Newport
Campylobacter sp. [32] = test: Antibacterial activity against Campylobacter sp. assessed as growth inhibition at 0.12 ug/ml by broth microdilution method; format: functional
Salmonella sp. [33] = test: Antibacterial activity against Salmonella sp. assessed as growth inhibition at =<0.002 ug/ml by broth microdilution method; format: functional
Campylobacter sp. [34] = test: Antibacterial activity against Campylobacter sp. assessed as growth inhibition at 0.5 ug/ml by broth microdilution method; format: functional
Shigella sp. [35] = test: Antibacterial activity against Shigella sp. assessed as growth inhibition at 0.03 ug/ml by broth microdilution method; format: functional
Escherichia coli [36] = test: Antibacterial activity against Escherichia coli assessed as growth inhibition at 1 ug/ml by broth microdilution method; format: functional
Salmonella typhimurium [37] = test: Antibacterial activity against Salmonella enterica serovar Typhimurium assessed as percent resistant isolates by broth microdilution method; format: functional, Salmonella enterica subsp. enterica serovar Typhimurium; settings: pooled result: one value given for 8 cell lines, strains, targets or settings
Vibrio fluvialis = test: Antibacterial activity against Vibrio fluvialis assessed as percent susceptible isolates by broth microdilution method; format: functional
Salmonella sp. [38] = test: Antibacterial activity against Salmonella sp. assessed as growth inhibition at 0.03 ug/ml by broth microdilution method; format: functional
Plesiomonas shigelloides [39] = test: Antibacterial activity against Plesiomonas shigelloides assessed as growth inhibition at =<0.002 ug/ml by broth microdilution method; format: functional
Plesiomonas shigelloides [40] = test: Antibacterial activity against Plesiomonas shigelloides assessed as percent susceptible isolates by broth microdilution method; format: functional
Shigella flexneri = test: Antibacterial activity against Shigella flexneri by broth microdilution method; format: functional
Aeromonas sp. [41] = test: Antibacterial activity against Aeromonas sp. assessed as growth inhibition at 2 ug/ml by broth microdilution method; format: functional
Vibrio alginolyticus = test: Antibacterial activity against Vibrio alginolyticus assessed as percent susceptible isolates by broth microdilution method; format: functional
Aeromonas sp. [42] = test: Antibacterial activity against Aeromonas sp. assessed as growth inhibition at 0.004 ug/ml by broth microdilution method; format: functional
Escherichia coli [43] = test: Antibacterial activity against Escherichia coli assessed as growth inhibition at 0.008 ug/ml by broth microdilution method; format: functional
Aeromonas veronii = test: Antibacterial activity against Aeromonas veronii assessed as percent resistant isolates by broth microdilution method; format: functional
Shigella boydii = test: Antibacterial activity against Shigella boydii by broth microdilution method; format: functional

CC1Sc2c(C(=O)O)c(=O)c3cc(F)c(N4CCNCC4)cc3n21 (stereo not drawn) [ULIFLOXACIN]
inhibition at 1 µg/mL (Aeromonas sp. [1]): 98% | inhibition at 0.03 µg/mL (Yersinia sp.): 93% | Activity (Escherichia coli [2]): 10% | MIC (Plesiomonas shigelloides [3]): 4 ng/mL (≈ 0.0114 µM) | MIC50 (Plesiomonas shigelloides [3]): 4 ng/mL (≈ 0.0114 µM) | inhibition at 0.016 µg/mL (Vibrio sp. [4]): 65% | Activity (Aeromonas caviae): 98% | inhibition at 0.016 µg/mL (Shigella sp. [5]): 96% | Activity (Escherichia coli [6]): 0% | inhibition at 0.25 µg/mL (Escherichia coli [7]): 97% | Activity [8]: 100% | MIC50 [9]: 8 ng/mL (≈ 0.0229 µM) | MIC90 [9]: 30 ng/mL (≈ 0.0859 µM) | Activity (Escherichia coli [10]): 4.8% | inhibition at 0.008 µg/mL (Aeromonas sp. [11]): 68% | MIC50 (Salmonella paratyphi [12]): 8 ng/mL (≈ 0.0229 µM) | MIC90 (Salmonella paratyphi [12]): 30 ng/mL (≈ 0.0859 µM) | Activity (Escherichia coli [13]): 0% | Activity (Escherichia coli [14]): 3% | Activity (Vibrio cholerae): 0% | MIC50 (Aeromonas hydrophila [15]): 4 ng/mL (≈ 0.0114 µM) | MIC90 (Aeromonas hydrophila [15]): 60 ng/mL (≈ 0.172 µM) | inhibition at 1 µg/mL (Campylobacter sp. [16]): 84% | MIC50 [17]: 8 ng/mL (≈ 0.0229 µM) | MIC90 [17]: 30 ng/mL (≈ 0.0859 µM) | Activity (Aeromonas hydrophila [18]): 2% | Activity (Plesiomonas shigelloides [19]): 0% | inhibition at 0.5 µg/mL (Aeromonas sp. [20]): 98% | inhibition at 0.12 µg/mL (Aeromonas sp. [21]): 93% | inhibition at 0.008 µg/mL (Shigella sp. [22]): 95% | Activity (Salmonella paratyphi [23]): 100% | MIC50 (Salmonella typhimurium [24]): 8 ng/mL (≈ 0.0229 µM) | MIC90 (Salmonella typhimurium [24]): 30 ng/mL (≈ 0.0859 µM) | inhibition (INH) (Aeromonas sp. [25]): 16% | inhibition at 0.008 µg/mL (Vibrio sp. [26]): 40% | Activity (Salmonella typhi): 100% | inhibition at 0.008 µg/mL (Plesiomonas shigelloides [27]): 100% | inhibition at 2 µg/mL (Campylobacter sp. [28]): 85% | Activity (Aeromonas sobria): 98% | MIC50 (Vibrio sp. [29]): 16 ng/mL (≈ 0.0458 µM) | MIC90 (Vibrio sp. [29]): 30 ng/mL (≈ 0.0859 µM) | inhibition at 0.06 µg/mL (Escherichia coli [30]): 97% | MIC50 [31]: 8 ng/mL (≈ 0.0229 µM) | MIC90 [31]: 30 ng/mL (≈ 0.0859 µM) | inhibition at 0.12 µg/mL (Campylobacter sp. [32]): 82% | inhibition (INH) (Salmonella sp. [33]): 1% | inhibition at 0.5 µg/mL (Campylobacter sp. [34]): 83% | inhibition at 0.03 µg/mL (Shigella sp. [35]): 99% | inhibition at 1 µg/mL (Escherichia coli [36]): 97% | Activity (Salmonella typhimurium [37]): 0% | Activity (Vibrio fluvialis): 100% | inhibition at 0.03 µg/mL (Salmonella sp. [38]): 91% | inhibition (INH) (Plesiomonas shigelloides [39]): 0% | Activity (Plesiomonas shigelloides [40]): 100% | MIC50 (Shigella flexneri): 4 ng/mL (≈ 0.0114 µM) | MIC90 (Shigella flexneri): 8 ng/mL (≈ 0.0229 µM) | inhibition at 2 µg/mL (Aeromonas sp. [41]): 98% | Activity (Vibrio alginolyticus): 100% | inhibition at 0.004 µg/mL (Aeromonas sp. [42]): 55% | inhibition at 0.008 µg/mL (Escherichia coli [43]): 93% | Activity (Aeromonas veronii): 2% | MIC50 (Shigella boydii): 4 ng/mL (≈ 0.0114 µM) | MIC90 (Shigella boydii): 8 ng/mL (≈ 0.0229 µM)
